Laboratory results reported in patent EP2071024A1, “Peptides of human prostatic acid phosphatase enhancing viral infectivity” (Pharis Biotec GmbH, priority 2007, dated 2009).
Ends that are not written are not given here.

Test system: peripheral blood mononuclear cells (PBMC)
Test: MTT cytotoxicity assay
Format: cell-based
Conditions: stimulated PBMC, incubated for 3 days, high concentrations, listed as monomeric PAP85-120
Experimental: To determine possible cytotoxic effects of PAP85-120 fibrils, serial dilutions of fibrils were added to stimulated peripheral blood mononuclear cells (PBMC) and incubated for 3 days (see example 8). Thereafter 10 µl of a 5 mg/ml MTT (Sigma; # M2128) solution was added and cells were incubated for 4 h at 37°C. In living cells mitochondrial dehydrogenases […] the yellow MTT salt to blue formazan crystals (Schiff et al.; 1985). After dissolving the crystals in 1:1 Ethanol/DMSO, samples containing living cells appear blue whereas samples from dead cells are clear. Optical density (OD) was measured at 560/650 nm using a photometer (Molecular Devices).
Fig. 5: PAP85 is non cytotoxic. Peripheral blood mononuclear cells (PBMC) were stimulated with phytohemagglutinine (2 µg/ml) and Interleukin 2 (10 µg/ml) for three days. Thereafter cells were sown out in 96 well dishes containing the indicated concentrations of freshly dissolved monomeric PAP85 or fibrillar PAP85 and incubated for 3 days. Cytotoxicity was determined by detecting dehydrogenase activity in living cells using the MTT assay. Values represent average values +/- SD derived from triplicates.

IRKRYRKFLNESYKHEQVYIRSTDVDRTLMSAMTNL [freshly dissolved PAP85-120]
cell viability / cytotoxic effects: do not exert cytotoxic effects
